Results as given in PubChem BioAssay (NCI).
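Compound exposure: 48 hours, 5 concentrations, 96-well plates. GI50 is the concentration that inhibits growth by half. TGI denotes the concentration required for complete inhibition of growth.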

Experiments:
Assay in all cases: growth of human tumour cells (NCI), 48 h
[1] = test system: HCT-116 colon
[2] = test system: OVCAR-5 ovarian
[3] = test system: CAKI-1 renal
[4] = test system: LOX IMVI melanoma
[5] = test system: SK-MEL-2 melanoma
[6] = test system: M14 melanoma
[7] = test system: U251 CNS
[8] = test system: T-47D breast
[9] = test system: OVCAR-4 ovarian
[10] = test system: K-562 leukemia
[11] = test system: SN12C renal
[12] = test system: 786-0 renal
[13] = test system: NCI-H522 lung
[14] = test system: CCRF-CEM leukemia
[15] = test system: SW-620 colon
[16] = test system: OVCAR-3 ovarian
[17] = test system: HOP-92 NSCLC
[18] = test system: MCF7 breast
[19] = test system: IGROV1 ovarian
[20] = test system: NCI-H23 lung
[21] = test system: EKVX NSCLC
[22] = test system: MDA-MB-435
[23] = test system: ACHN renal
[24] = test system: SNB-75 CNS
[25] = test system: SK-OV-3 ovarian
[26] = test system: SK-MEL-5 melanoma
[27] = test system: SF-268 CNS
[28] = test system: HS 578T breast
[29] = test system: A498 renal
[30] = test system: KM12 colon
[31] = test system: NCI-H226 lung
[32] = test system: NCI/ADR-RES ovarian
[33] = test system: SK-MEL-28 melanoma
[34] = test system: SF-539 CNS
[35] = test system: A549 NSCLC
[36] = test system: HCC-2998 colon
[37] = test system: NCI-H460 lung
[38] = test system: COLO 205 colon
[39] = test system: OVCAR-8 ovarian
[40] = test system: UACC-257 melanoma
[41] = test system: HOP-62 NSCLC
[42] = test system: MOLT-4 leukemia
[43] = test system: UACC-62 melanoma
[44] = test system: MDA-MB-231 breast
[45] = test system: PC-3 prostate
[46] = test system: RXF 393 renal
[47] = test system: TK-10 renal
[48] = test system: SNB-19 CNS
[49] = test system: HT29 colon
[50] = test system: MALME-3M melanoma
[51] = test system: SF-295 CNS
[52] = test system: SR leukemia
[53] = test system: HCT-15 colon
[54] = test system: BT-549 breast
[55] = test system: UO-31 renal
[56] = test system: DU-145 prostate

## C=CCc1c(O)c(C(=O)/C=C/c2ccc(Cl)cc2)c(OC)c2ccoc12
[1]
  GI50: 2.74 µM
  TGI: 9 µM
[2]
  GI50: 2.8 µM
  TGI: 9.71 µM
[3]
  GI50: 2.61 µM
  TGI: 11.6 µM
[4]
  GI50: 1.63 µM
  TGI: 3.08 µM
[5]
  GI50: 3.97 µM
  TGI: 14.7 µM
[6]
  GI50: 5.08 µM
  TGI: 29.2 µM
[7]
  GI50: 2.3 µM
  TGI: 5.87 µM
[8]
  GI50: 3.29 µM
  TGI: 19 µM
[9]
  GI50: 2.77 µM
  TGI: 13.1 µM
[10]
  GI50: 3.25 µM
  TGI: > 100 µM
[11]
  GI50: 4.96 µM
  TGI: 16.9 µM
[12]
  GI50: 4.83 µM
  TGI: 18.6 µM
[13]
  GI50: 1.88 µM
  TGI: 5.71 µM
[14]
  GI50: 3.33 µM
  TGI: > 100 µM
[15]
  GI50: 2.56 µM
  TGI: 6.86 µM
[16]
  GI50: 1.97 µM
  TGI: 4.41 µM
[17]
  GI50: 1.69 µM
  TGI: 5.94 µM
[18]
  GI50: 2.51 µM
  TGI: 11.4 µM
[19]
  GI50: 3.46 µM
  TGI: 14.9 µM
[20]
  GI50: 2.78 µM
  TGI: 11.6 µM
[21]
  GI50: 7.23 µM
  TGI: 21.5 µM
[22]
  GI50: 2.06 µM
  TGI: 4.53 µM
[23]
  GI50: 2.31 µM
  TGI: 6.17 µM
[24]
  GI50: 2.01 µM
  TGI: 9.11 µM
[25]
  GI50: 5.96 µM
  TGI: 19.2 µM
[26]
  GI50: 2.07 µM
  TGI: 5.18 µM
[27]
  GI50: 3.25 µM
  TGI: 12 µM
[28]
  GI50: 4.02 µM
  TGI: 42.4 µM
[29]
  GI50: 2.77 µM
  TGI: 13 µM
[30]
  GI50: 3.72 µM
  TGI: 13 µM
[31]
  GI50: 1.52 µM
  TGI: 2.97 µM
[32]
  GI50: 2.23 µM
  TGI: 5.86 µM
[33]
  GI50: 2.32 µM
  TGI: 5.53 µM
[34]
  GI50: 1.79 µM
  TGI: 3.85 µM
[35]
  GI50: 4.7 µM
  TGI: 18.2 µM
[36]
  GI50: 1.79 µM
  TGI: 3.26 µM
[37]
  GI50: 3.2 µM
  TGI: 12.1 µM
[38]
  GI50: 4.44 µM
  TGI: 15.5 µM
[39]
  GI50: 3.04 µM
  TGI: 12 µM
[40]
  GI50: 2.39 µM
  TGI: 6.62 µM
[41]
  GI50: 2.31 µM
  TGI: 5.76 µM
[42]
  GI50: 2.61 µM
  TGI: > 100 µM
[43]
  GI50: 2.88 µM
  TGI: 10.1 µM
[44]
  GI50: 4.3 µM
  TGI: 16.8 µM
[45]
  GI50: 3.81 µM
  TGI: 15.6 µM
[46]
  GI50: 1.72 µM
  TGI: 3.6 µM
[47]
  GI50: 3.62 µM
  TGI: 12.9 µM
[48]
  GI50: 2.85 µM
  TGI: 8.15 µM
[49]
  GI50: 1.89 µM
  TGI: 3.98 µM
[50]
  GI50: 2.74 µM
  TGI: 8.51 µM
[51]
  GI50: 2.77 µM
  TGI: 9.56 µM
[52]
  GI50: 2.77 µM
  TGI: 9.11 µM
[53]
  GI50: 3.4 µM
  TGI: 12.9 µM
[54]
  GI50: 3 µM
  TGI: 11 µM
[55]
  GI50: 2.88 µM
  TGI: 13.3 µM
[56]
  GI50: 3.85 µM
  TGI: 18.1 µM
